Data set [1] has as its target Envelope glycoprotein gp160 (Human immunodeficiency virus 1, UniProt Q6QLK5). Description: Binding affinity to HIV1 cYTA48P envelope glycoprotein gp120 infected in human TZM-b1 cells assessed as induction of conformational changes measured after 48 hrs. In kind it is cell-based.
The nature of data set [2]: Cytotoxicity against human TZM-b1 cells assessed as reduction in cell viability by CCK8 assay. In kind it is cell-based. (Tetrazolium assays rely on reduction of a dye to a coloured formazan, in cell work by metabolically active cells.)
The nature of data set [3]: Aqueous solubility of the compound in phosphate buffered saline. Format: physicochemical.
Data set [4] deals with Envelope glycoprotein gp160 (Human immunodeficiency virus 1) (UniProt Q6QLK5). Description: Binding affinity to HIV1 cYTA48P envelope glycoprotein gp120 infected in human TZM-b1 cells assessed as induction of conformational changes by measuring combination index at 15:1 ratio of test compound to KD-247 measured after 48 hrs. Format: cell-based.
Chain of Envelope glycoprotein gp160 (Human immunodeficiency virus 1) (Q6QLK5 1-814): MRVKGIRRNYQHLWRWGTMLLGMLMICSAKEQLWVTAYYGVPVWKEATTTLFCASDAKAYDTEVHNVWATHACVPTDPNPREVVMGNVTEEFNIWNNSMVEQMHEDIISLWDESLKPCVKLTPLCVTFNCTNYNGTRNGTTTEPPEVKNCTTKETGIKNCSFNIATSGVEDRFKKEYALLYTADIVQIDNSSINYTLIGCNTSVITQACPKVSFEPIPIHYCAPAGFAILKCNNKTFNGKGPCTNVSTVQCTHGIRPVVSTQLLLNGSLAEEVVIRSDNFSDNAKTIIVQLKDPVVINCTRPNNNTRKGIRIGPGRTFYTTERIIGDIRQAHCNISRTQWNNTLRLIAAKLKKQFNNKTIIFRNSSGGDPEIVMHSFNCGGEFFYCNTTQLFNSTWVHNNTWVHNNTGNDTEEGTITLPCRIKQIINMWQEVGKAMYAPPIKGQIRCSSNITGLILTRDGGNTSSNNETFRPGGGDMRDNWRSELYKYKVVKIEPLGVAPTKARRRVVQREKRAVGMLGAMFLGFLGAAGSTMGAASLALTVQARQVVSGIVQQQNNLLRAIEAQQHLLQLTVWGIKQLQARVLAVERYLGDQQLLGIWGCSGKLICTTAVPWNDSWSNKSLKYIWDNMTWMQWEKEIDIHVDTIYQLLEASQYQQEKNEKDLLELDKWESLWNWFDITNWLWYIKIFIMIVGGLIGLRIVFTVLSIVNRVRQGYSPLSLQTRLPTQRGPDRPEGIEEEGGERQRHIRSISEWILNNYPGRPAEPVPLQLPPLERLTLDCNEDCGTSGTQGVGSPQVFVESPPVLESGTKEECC
For data set [5] the target is unchanged. Description: Binding affinity to HIV1 cYTA48P envelope glycoprotein gp120 infected in human TZM-b1 cells assessed as induction of conformational changes by measuring combination index at 450:1 ratio of test compound to KD-247 measured after 48 hrs. In kind it is cell-based.

Converted amounts (≈) assume the structure as drawn.

Chain of Envelope glycoprotein gp160 (Q6QLK5 whole entry): as the sequence (Q6QLK5 1-814) above

Regarding `CC1(C)CC(NC(=O)C(=O)Nc2ccc(I)cn2)CC(C)(C)N1`, in data set [1], the IC50 (in general, the concentration needed to halve the response being measured) was 68 µM. In data set [2], the CC50 (in general, the concentration at which the toxic effect on the cells reaches its halfway point) turned out to be 205 µM.
In the case of `CC1(C)CC(NC(=O)C(=O)Nc2cccnc2)CC(C)(C)N1`, the IC50 in data set [1] is over 100 µM. Besides, the half-maximal cytotoxic concentration (CC50) in data set [2] was over 300 µM.
The corresponding values for `COc1ccc(NC(=O)C(=O)NC2CC(C)(C)NC(C)(C)C2)cn1` are 27 µM and over 300 µM.
The corresponding values for `CC1(C)CC(NC(=O)C(=O)Nc2ccc(Br)cn2)CC(C)(C)N1` are 42 µM and 71 µM.
The corresponding values for `CC1(C)CC(NC(=O)C(=O)Nc2cccnc2Cl)CC(C)(C)N1` are over 100 µM and over 300 µM.
Turning to `O=C(Nc1ccc(F)nc1)C(=O)NC1CCNC2(CCCCC2)C1` (centres undefined), in data set [1], the IC50 came out at 0.46 µM. Further, the CC50 in data set [2] was over 300 µM.
For the compound `O=C(Nc1ccc(Br)nc1)C(=O)NC1CCNC2(CCCCC2)C1` (centres undefined), in data set [1], the concentration for half-maximal inhibition (IC50) worked out at 1.2 µM. Also, in data set [2], the 50% cytotoxic concentration (CC50) came out at 180 µM.
In the case of `CC1(C)CC(NC(=O)C(=O)Nc2cnc(F)c(F)c2)CC(C)(C)N1`, the IC50 in data set [1] worked out at 7.6 µM. Besides, the cytotoxic concentration (CC50) in data set [2] was over 300 µM.
With `CC1(C)CC(NC(=O)C(=O)Nc2ccc(Br)nc2)CC(C)(C)N1`, in data set [1], the IC50 came to 1.2 µM. Also, the CC50 in data set [2] was over 300 µM. Besides, the solubility – broadly, the dissolved amount per volume that the medium holds – in data set [3] was 3.62 mM (≈ 1390 µg/mL).
With `O=C1Nc2ccc(Cl)cc2[C@@](C#CC2CC2)(C(F)(F)F)O1` [EFAVIRENZ], the half-inhibitory concentration (IC50) in data set [1] stood at 0.0035 µM. Moreover, the CC50 in data set [2] was determined as 20 µM.
As to `CC1(C)CC(NC(=O)C(=O)Nc2ccc(Cl)cc2)CC(C)(C)N1`, the IC50 in data set [1] was 0.17 µM. Further, the half-maximal cytotoxic concentration (CC50) in data set [2] was 116 µM. In data set [3], this compound yielded a solubility of 1.39 mM (≈ 470 µg/mL). Also, the CI in data set [4] was determined as 0.52.
Turning to `CC1(C)CC(NC(=O)C(=O)Nc2ccnc(Br)c2)CC(C)(C)N1`, the IC50 in data set [1] was found to be 3.6 µM. For the same compound, the cytotoxic concentration (CC50) in data set [2] came out at 295 µM. For the same compound, the CI in data set [5] came to 0.16.
Turning to `CC1(C)CC(NC(=O)C(=O)Nc2ccnc(Cl)c2)CC(C)(C)N1`, the IC50 in data set [1] worked out at 2.3 µM. Also, the half-maximal cytotoxic concentration (CC50) in data set [2] is over 300 µM. The CI in data set [5] is 0.2.
As for `CC1(C)CC(NC(=O)C(=O)Nc2ccc(F)nc2)CC(C)(C)N1`, the IC50 in data set [1] was determined as 2.1 µM. The CC50 in data set [2] is over 300 µM. The solubility in data set [3] amounted to 6.67 mM (≈ 2150 µg/mL). The CI in data set [5] was determined as 0.34.
Take `CC1(C)CC(NC(=O)C(=O)Nc2ccc(F)cn2)CC(C)(C)N1`: the IC50 in data set [1] came out at 59 µM. The half-maximal cytotoxic concentration (CC50) in data set [2] is over 300 µM.
As for `CC1(C)CC(NC(=O)C(=O)Nc2ccc(Cl)nc2)CC(C)(C)N1`, in data set [1], the IC50 turned out to be 4 µM. The CC50 in data set [2] is over 300 µM.
Turning to `CC1(C)CC(NC(=O)C(=O)Nc2ccnc(F)c2)CC(C)(C)N1`, in data set [1], the IC50 came out at 63 µM. Besides, the CC50 in data set [2] was over 300 µM.
Turning to `CC1(C)CC(NC(=O)C(=O)Nc2ccncc2)CC(C)(C)N1`, in data set [1], the IC50 is over 100 µM. In data set [2], the CC50 is over 300 µM.
The corresponding values for `CC1(C)CC(NC(=O)C(=O)Nc2ccc(Cl)cn2)CC(C)(C)N1` are 61 µM and over 300 µM.
For `Cc1cccc(NC(=O)C(=O)NC2CC(C)(C)NC(C)(C)C2)n1` the same measures were over 100 µM and 257 µM.
Consider `CC1(C)CC(NC(=O)C(=O)Nc2ccc(C(F)(F)F)cn2)CC(C)(C)N1`, for which the IC50 in data set [1] was 46 µM. In data set [2], the CC50 was over 300 µM.
